Measured values from ChEMBL document CHEMBL1201862, “PubChem BioAssay data set” (2004).
Structures can show the parent of a compound that is named as a salt.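 How tested: cells in 96-well plates exposed to compound for 48 hours at five concentrations. At the GI50, growth is halved.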 The source made the active and inactive calls. Rule as the data show it: active = GI50 up to about 1.1 µM and inactive = higher.

Experiments:
Experiment in all cases: DTP human tumour cell line panel, 48 h
COLO 205 = system: COLO 205
HOP-92 = system: HOP-92
K562 = system: K562
KM12 = system: KM12
NCI-H226 = system: NCI-H226
NCI-H460 = system: NCI-H460
NCI-H522 = system: NCI-H522
OVCAR-3 = system: OVCAR-3
SF-539 = system: SF-539
SK-MEL-2 = system: SK-MEL-2
SNB-19 = system: SNB-19
SR = system: SR
HCT-116 = system: HCT-116
HOP-62 = system: HOP-62
LOX IMVI = system: LOX IMVI
OVCAR-4 = system: OVCAR-4

Measured: GI50

CCOC(=O)C1=C(C)CC2C(=O)OC(=O)C2C1(C)C (stereo not drawn)
inactive: COLO 205 > 100 µM | HOP-92 > 100 µM | K562 > 100 µM | KM12 > 100 µM | NCI-H226 > 100 µM | NCI-H460 > 100 µM | NCI-H522 > 100 µM | OVCAR-3 > 100 µM | SF-539 > 100 µM | SK-MEL-2 > 100 µM | SNB-19 > 100 µM | SR > 100 µM

O=C(CCc1nnc2s/c(=C\c3ccc(Cl)c(Cl)c3)c(=O)n12)Nc1ccc(Cl)c(Cl)c1
inactive: COLO 205 56.6 µM | HCT-116 > 100 µM | HOP-62 > 100 µM | HOP-92 86.7 µM | K562 72.8 µM | KM12 43.4 µM | LOX IMVI 19.2 µM | NCI-H226 > 100 µM | NCI-H460 > 100 µM | NCI-H522 25.1 µM | OVCAR-3 29.9 µM | OVCAR-4 73.5 µM | SF-539 51.8 µM | SNB-19 45 µM | SR 24.8 µM

C[n+]1cc(C(O)c2ccc3c(c2)OCO3)c2ccccc2c1 (stereo not drawn)
inactive: COLO 205 33.2 µM | HCT-116 28.4 µM | HOP-62 37.7 µM | K562 25.1 µM | KM12 38.3 µM | LOX IMVI 46 µM | NCI-H226 20.6 µM | NCI-H460 40.3 µM | NCI-H522 16 µM | OVCAR-3 28.8 µM | SF-539 30.2 µM | SK-MEL-2 26.2 µM | SNB-19 44.3 µM

Cc1[nH]c2ccccc2c1C(=O)CC1(O)C(=O)Nc2ccccc21 (stereo not drawn)
inactive: COLO 205 > 100 µM | HCT-116 > 100 µM | HOP-62 > 100 µM | HOP-92 > 100 µM | K562 > 100 µM | KM12 > 100 µM | LOX IMVI > 100 µM | NCI-H226 > 100 µM | NCI-H460 > 100 µM | OVCAR-4 > 100 µM | SF-539 > 100 µM | SK-MEL-2 87.7 µM | SNB-19 > 100 µM | SR > 100 µM

Nn1c(-c2cccc(Cl)c2)nc2ccccc2c1=O
inactive: COLO 205 > 100 µM | HCT-116 > 100 µM | HOP-62 > 100 µM | HOP-92 > 100 µM | K562 > 100 µM | KM12 > 100 µM | NCI-H226 > 100 µM | NCI-H460 > 100 µM | NCI-H522 > 100 µM | OVCAR-3 > 100 µM | OVCAR-4 > 100 µM | SF-539 > 100 µM | SK-MEL-2 > 100 µM | SNB-19 > 100 µM

CC(=O)CC(=O)OC1CC(C)CCC1C(C)C (stereo not drawn)
inactive: COLO 205 96.2 µM | HCT-116 13.5 µM | HOP-62 33.9 µM | HOP-92 35 µM | K562 16 µM | KM12 37.8 µM | LOX IMVI 47.6 µM | NCI-H460 53.3 µM | NCI-H522 39.7 µM | OVCAR-3 26 µM | OVCAR-4 54.5 µM | SF-539 36.8 µM | SK-MEL-2 28.4 µM | SNB-19 78.5 µM

CC(=O)OCC(OC(C)=O)C(OC(C)=O)C(OC(C)=O)C(=O)CNn1c(-c2ccccc2Cl)nc2ccccc2c1=O (stereo not drawn)
inactive: COLO 205 > 100 µM | HCT-116 > 100 µM | HOP-62 > 100 µM | K562 > 100 µM | KM12 > 100 µM | LOX IMVI > 100 µM | NCI-H226 > 100 µM | NCI-H460 > 100 µM | NCI-H522 > 100 µM | OVCAR-3 > 100 µM | OVCAR-4 > 100 µM | SF-539 > 100 µM | SK-MEL-2 > 100 µM | SNB-19 > 100 µM | SR 61.9 µM

CCOC(=O)CC(C)C1(C=O)CCCCC1=O (stereo not drawn)
inactive: COLO 205 29.3 µM | HCT-116 > 100 µM | HOP-62 > 100 µM | K562 > 100 µM | KM12 > 100 µM | LOX IMVI 18.3 µM | NCI-H226 > 100 µM | NCI-H460 60 µM | NCI-H522 90.4 µM | OVCAR-3 > 100 µM | OVCAR-4 79.8 µM | SF-539 > 100 µM | SK-MEL-2 > 100 µM | SNB-19 > 100 µM | SR 19.9 µM

Nc1ccc(C(=O)CC2(O)C(=O)Nc3ccccc32)cc1 (stereo not drawn)
inactive: COLO 205 > 100 µM | HCT-116 > 100 µM | HOP-92 > 100 µM | K562 > 100 µM | LOX IMVI > 100 µM | NCI-H226 > 100 µM | NCI-H460 > 100 µM | NCI-H522 29.7 µM | OVCAR-3 > 100 µM | OVCAR-4 > 100 µM | SF-539 > 100 µM | SK-MEL-2 > 100 µM | SNB-19 > 100 µM

C[Si](C)(C)c1ccc(-c2sc(-c3ccc([Si](C)(C)C)s3)c3c2C[Si]2(C3)Cc3c(-c4ccc([Si](C)(C)C)s4)sc(-c4ccc([Si](C)(C)C)s4)c3C2)s1
inactive: COLO 205 > 100 µM | HCT-116 > 100 µM | HOP-62 > 100 µM | HOP-92 > 100 µM | K562 > 100 µM | KM12 > 100 µM | LOX IMVI > 100 µM | NCI-H226 > 100 µM | NCI-H460 > 100 µM | NCI-H522 > 100 µM | OVCAR-3 > 100 µM | OVCAR-4 > 100 µM | SF-539 > 100 µM | SNB-19 > 100 µM | SR > 100 µM

CCCCCCCCCCCCCCNCC(OCC)OCC
inactive: COLO 205 14.4 µM | HCT-116 11.1 µM | HOP-62 16.5 µM | HOP-92 11.5 µM | KM12 10.3 µM | LOX IMVI 16.3 µM | NCI-H226 18.4 µM | NCI-H460 17.1 µM | NCI-H522 3.66 µM | OVCAR-3 18.3 µM | OVCAR-4 13.6 µM | SF-539 16.1 µM | SK-MEL-2 14.5 µM | SNB-19 16.5 µM

CC1=C2[C@@H](c3ccccc3)C3C=CC2(c2ccccc23)N(C(=O)Nc2cccc3ccccc23)C1=O (stereo partly drawn)
inactive: COLO 205 > 100 µM | HCT-116 > 100 µM | HOP-62 > 100 µM | HOP-92 > 100 µM | K562 > 100 µM | KM12 > 100 µM | LOX IMVI > 100 µM | OVCAR-3 > 100 µM | OVCAR-4 > 100 µM | SF-539 > 100 µM | SNB-19 > 100 µM | SR > 100 µM

N#C/C(=C1\N=NC(N)=C(c2ccc(Cl)cc2)C1=O)c1ccc(Cl)cc1
inactive: COLO 205 > 100 µM | HCT-116 > 100 µM | HOP-62 > 100 µM | HOP-92 > 100 µM | K562 > 100 µM | KM12 > 100 µM | LOX IMVI > 100 µM | NCI-H226 > 100 µM | NCI-H460 > 100 µM | NCI-H522 > 100 µM | OVCAR-3 > 100 µM | OVCAR-4 > 100 µM | SF-539 > 100 µM | SNB-19 > 100 µM | SR > 100 µM

CC(NC(C)(C)C)C(=O)c1cccc(Cl)c1 (stereo not drawn) [BUPROPION HYDROCHLORIDE]
inactive: COLO 205 > 100 µM | HCT-116 > 100 µM | HOP-62 > 100 µM | K562 > 100 µM | KM12 > 100 µM | LOX IMVI > 100 µM | NCI-H460 > 100 µM | NCI-H522 > 100 µM | OVCAR-3 > 100 µM | OVCAR-4 > 100 µM | SF-539 > 100 µM | SK-MEL-2 > 100 µM
